We go through 34 molecules from patent publication US20190084939A1, “ANALOGS OF FEXARAMINE AND METHODS OF MAKING AND USING” (Salk Institute for Biological Studies, priority 2014, published 2019).

The assay concerns the target T1, Human FXR full length (Homo sapiens, UniProt Q96RI1).
T1 construct: Human FXR full length and RXR full length was obtained from Ronald Evans' laboratory; expressed in transfected cells; host or cells: CV-1 cells
T1 sequence (Q96RI1 1-476 isoform Q96RI1-1): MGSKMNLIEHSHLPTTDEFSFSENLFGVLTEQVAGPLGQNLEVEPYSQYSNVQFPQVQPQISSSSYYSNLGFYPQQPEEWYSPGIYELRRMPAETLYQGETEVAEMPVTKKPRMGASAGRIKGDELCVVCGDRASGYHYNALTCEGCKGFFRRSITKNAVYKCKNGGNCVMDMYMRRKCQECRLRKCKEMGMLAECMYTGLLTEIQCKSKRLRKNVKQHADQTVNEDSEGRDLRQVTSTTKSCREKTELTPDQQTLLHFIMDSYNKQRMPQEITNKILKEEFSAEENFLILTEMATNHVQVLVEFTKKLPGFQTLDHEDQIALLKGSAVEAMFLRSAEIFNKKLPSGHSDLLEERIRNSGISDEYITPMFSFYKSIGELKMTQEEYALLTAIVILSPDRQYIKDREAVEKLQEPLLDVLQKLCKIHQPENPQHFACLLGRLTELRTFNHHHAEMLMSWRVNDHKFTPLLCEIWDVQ
T1 sequence (P19793 1-462 partner): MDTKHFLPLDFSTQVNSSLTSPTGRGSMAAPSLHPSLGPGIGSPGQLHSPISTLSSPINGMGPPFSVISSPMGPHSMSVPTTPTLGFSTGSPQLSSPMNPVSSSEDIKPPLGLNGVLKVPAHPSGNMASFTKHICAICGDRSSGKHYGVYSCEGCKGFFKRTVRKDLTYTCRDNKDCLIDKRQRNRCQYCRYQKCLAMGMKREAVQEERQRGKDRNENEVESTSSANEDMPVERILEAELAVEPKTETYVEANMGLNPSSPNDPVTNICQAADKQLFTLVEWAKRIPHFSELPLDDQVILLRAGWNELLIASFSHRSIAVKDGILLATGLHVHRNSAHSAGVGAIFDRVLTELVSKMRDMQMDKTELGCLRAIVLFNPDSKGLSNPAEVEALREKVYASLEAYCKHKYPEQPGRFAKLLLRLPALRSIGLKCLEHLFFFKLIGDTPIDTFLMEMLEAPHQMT
The assay is described as follows: FXR activity screen, luciferase reporter in transfected CV-1 cells. It is filed as cell-based. The note with it: CV-1 cells, 24 hours. As to the method: CV-1 cells were grown in DMEM+10% charcoal stripped FCS. Cells were seeded into 384-well plates the day before transfection to give a confluency of 50-80% at transfection. A total of […] DNA containing 0.32 micrograms pCMX-hFXRfl, 0.32 micrograms pCMX-hRXRfl, 0.1 micrograms pCMXβGal, 0.08 micrograms pGLFXRE reporter and 0.02 micrograms pCMX empty vector was transfected per well using FuGene transfection reagent according to the manufacturer's instructions (Roche). Cells were allowed to express protein for 48 hours followed by addition of compound.
Human FXR full length and RXR full length was obtained from Ronald Evans' laboratory and PCR amplification of the hFXR cDNA and the hRXR cDNA was performed. The amplified cDNAs was cloned into the vector pCMX generating the plasmids pCMX-hFXRfl and pCMX-hRXRfl. Ensuing fusions were verified by sequencing. The pCMXMH2004 luciferase reporter contains multiple copies of the GAL4 DNA response element under a minimal eukaryotic promoter (Hollenberg and Evans, 1988). pCMXβGal was generated in the Evans laboratory, Salk Institute.
All compounds were dissolved in DMSO and diluted 1:1000 upon addition to the cells. Compounds were tested in quadruple in concentrations ranging from 0.001 to 100 μM. Cells were treated with compound for 24 hours followed by luciferase assay. Each compound was tested in at least two separate experiments.
Medium including test compound was aspirated and washed with PBS. 50 μL PBS including 1 mM Mg^2+ and Ca^2+ were then added to each well. The luciferase assay was performed using the LucLite kit according to the manufacturer's instructions (Packard Instruments). Light emission was quantified by counting on a Perkin Elmer Envision reader. To measure […] activity 25 μL supernatant from each transfection lysate was transferred to a new 384 microplate. Beta-galactosidase assays were performed in the microwell plates using a kit from Promega and read in a Perkin Elmer Envision reader. The beta-galactosidase data were used to normalize (transfection efficiency, cell growth etc.) the luciferase data.
The activity of a compound is calculated as fold induction compared to an untreated sample. For each compound the efficacy (maximal activity) is given as a relative activity compared to Fexaramine, a FXR agonist. The EC50 is the concentration giving 50% of maximal observed activity. EC50 values were calculated via non-linear regression using GraphPad PRISM (GraphPad Software, San Diego, Calif.).

The mark [1] stands for this setting: first round, read-out: 1st RND EC50.
Where [2] appears, read: second round, read-out: 2nd RND EC50.

Molecules are shown by their SMILES. Read-outs that look alike come from different tables or passages of the source.

With `COC(=O)/C=C/c1cccc(N(Cc2ccc(-c3ccc(N(C)C)cc3)cc2F)C(=O)[C@@H]2C[C@@H]3CC[C@H]2C3)c1` [NSSK00043], the EC50 (commonly the concentration at which the effect is half-maximal) turned out to be 80.9 nM under setting [1] and 80.7 nM under setting [2].
On to `COC(=O)/C=C/c1cc(F)cc(N(Cc2ccc(-c3ccc(N(C)C)cc3)cc2F)C(=O)[C@@H]2C[C@@H]3CC[C@H]2C3)c1` [NSSK00044], for which the half-maximal effective concentration (EC50) is, setting by setting: under setting [1], 149 nM; under setting [2], 144 nM.
In the same order, the values of `[2H]C(c1ccc(-c2ccc(N(C)C)cc2)cc1Cl)N(C(=O)[C@@H]1C[C@@H]2CC[C@H]1C2)c1cccc(/C=C/C(=O)OC)c1` (some centres unmarked) [NSSK00045] are 334 nM and 334 nM.
On to `COC(=O)/C=C/c1cccc(N(Cc2ccc(-c3ccc4c(cnn4C)c3)cc2Cl)C(=O)[C@@H]2C[C@@H]3CC[C@H]2C3)c1` [NSSK00046], for which the concentration giving a half-maximal response (EC50) is, setting by setting: under setting [1], 639 nM; under setting [2], 519 nM.
On the same counts, the results for `COC(=O)/C=C/c1cc(F)cc(N(Cc2ccc(-c3ccc4c(cnn4C)c3)cc2Cl)C(=O)[C@@H]2C[C@@H]3CC[C@H]2C3)c1` [NSSK00047] are 355 nM and 403 nM.
In the same order, the values of `[2H]C(c1ccc(-c2ccc(N(C)C)cc2)cc1)N(C(=O)c1ccccc1)c1cccc(/C=C/C(=O)OC)c1` (centres unmarked) [NSSK00048] are 382 nM and 357 nM.
For the molecule `[2H]C(c1ccc(-c2ccc3c(cnn3C)c2)cc1)N(C(=O)c1ccccc1)c1cccc(/C=C/C(=O)OC)c1` (centres unmarked) [NSSK00049], the EC50 under setting [1] was found to be 2800 nM and the half-maximal effective concentration (EC50) under setting [2] came to 3500 nM.
In the same order, the values of `[2H]C(c1ccc(-c2ccc(N(C)C)cc2)cc1Cl)N(C(=O)c1ccccc1)c1cc(F)cc(/C=C/C(=O)OC)c1` (centres unmarked) [NSSK00050] are 1700 nM and 2100 nM.
In the same order, the values of `[2H]C(c1ccc(-c2ccc3c(cnn3C)c2)cc1)N(C(=O)c1ccccc1)c1cc(F)cc(/C=C/C(=O)OC)c1` (centres unmarked) [NSSK00051] are 1100 nM and 5000 nM.
As for `COC(=O)/C=C/c1cccc(N(Cc2ccc(-c3ccc(N(C)C)cc3)cc2Cl)C(=O)[C@@H]2C[C@@H]3CC[C@H]2C3)c1` [NSSK00052], the concentration for a half-maximal effect (EC50) under setting [1] amounted to 697 nM and the concentration giving a half-maximal response (EC50) under setting [2] turned out to be 697 nM.
On to `COC(=O)/C=C/c1cccc(N(Cc2ccc(-c3ccc(N(C)C)cc3)cc2)C(=O)c2ccccc2)c1` [NSSK00053], for which the EC50 is, setting by setting: under setting [1], 529 nM; under setting [2], 539 nM.
Turning to `COC(=O)/C=C/c1cccc(N(Cc2ccc(-c3ccc(N(C)C)cc3)cc2F)C(=O)c2ccccc2)c1` [NSSK00054], the half-maximal effective concentration (EC50) runs as follows: under setting [1], 509 nM; under setting [2], 457 nM.
In the same order, the values of `COC(=O)/C=C/c1cccc(N(Cc2ccc(-c3ccc(N(C)C)cc3)cc2Cl)C(=O)c2ccccc2)c1` [NSSK00055] are 931 nM and 1400 nM.
As for `COC(=O)/C=C/c1cccc(N(Cc2ccc(-c3ccc4c(cnn4C)c3)cc2)C(=O)c2ccccc2)c1` [NSSK00056], the EC50 runs as follows: under setting [1], 752 nM; under setting [2], 720 nM.
With `COC(=O)/C=C/c1cccc(N(Cc2ccc(-c3ccc4c(cnn4C)c3)cc2F)C(=O)c2ccccc2)c1` [NSSK00057], the concentration giving a half-maximal response (EC50) runs as follows: under setting [1], 606 nM; under setting [2], 795 nM.
For the molecule `COC(=O)/C=C/c1cc(F)cc(N(Cc2ccc(-c3ccc4c(cnn4C)c3)cc2)C(=O)c2ccccc2)c1` [NSSK00058], the EC50 under setting [1] is 1200 nM and the concentration giving a half-maximal response (EC50) under setting [2] turned out to be 1500 nM.
In the same order, the values of `COC(=O)/C=C/c1cncc(N(Cc2ccc(-c3ccc(N(C)C)cc3)cc2)C(=O)[C@@H]2C[C@@H]3CC[C@H]2C3)c1` [NSSK00059] are 1570 nM and 1300 nM.
As to `COC(=O)/C=C/c1cncc(N(Cc2ccc(-c3ccc(N(C)C)cc3)cc2)C(=O)c2ccccc2)c1` [NSSK00060], the EC50 is, setting by setting: under setting [1], 8500 nM; under setting [2], 11200 nM.
On the same counts, the results for `COC(=O)/C=C/c1cncc(N(Cc2ccc(-c3ccc4c(cnn4C)c3)cc2F)C(=O)c2ccccc2)c1` [NSSK00061] are 9600 nM and 10200 nM.
On the same counts, the results for `[2H]C(c1ccc(-c2ccc(N(C)C)cc2)cc1)N(C(=O)C1CCCCC1)c1cncc(/C=C/C(=O)OC)c1` (centres unmarked) [NSSK00062] are 926 nM and 926 nM.
In the same order, the values of `[2H]C(c1ccc(-c2ccc(N(C)C)cc2)cc1)N(C(=O)c1ccccc1)c1cncc(/C=C/C(=O)OC)c1` (centres unmarked) [NSSK00063] are 3000 nM and 1900 nM.
Turning to `[2H]C(c1ccc(-c2ccc(N(C)C)cc2)cc1Cl)N(C(=O)[C@@H]1C[C@@H]2CC[C@H]1C2)c1cncc(/C=C/C(=O)OC)c1` (some centres unmarked) [NSSK00064], the EC50 runs as follows: under setting [1], 4600 nM; under setting [2], 3300 nM.
On to `[2H]C(c1ccc(-c2ccc(N(C)C)cc2)cc1Cl)N(C(=O)c1ccccc1)c1cncc(/C=C/C(=O)OC)c1` (centres unmarked) [NSSK00065], for which the EC50 is, setting by setting: under setting [1], 3300 nM; under setting [2], 6000 nM.
For `[2H]C(c1ccc(-c2ccc3c(cnn3C)c2)cc1F)N(C(=O)[C@@H]1C[C@@H]2CC[C@H]1C2)c1cncc(/C=C/C(=O)OC)c1` (some centres unmarked) [NSSK00066], the EC50 is, setting by setting: under setting [1], 5400 nM; under setting [2], 8500 nM.
As for `[2H]C(c1ccc(-c2ccc3c(cnn3C)c2)cc1F)N(C(=O)c1ccccc1)c1cncc(/C=C/C(=O)OC)c1` (centres unmarked) [NSSK00067], the EC50 is 0.4 nM under setting [1] and 0.2 nM under setting [2].
Take `COC(=O)/C=C/c1cc(F)cc(N(Cc2ccc(-c3ccc(N(C)C)cc3)cc2)C(=O)c2ccccc2)c1` [NSSK00068]: the half-maximal effective concentration (EC50) worked out at 5700 nM under setting [1] and 7400 nM under setting [2].
Regarding `[2H]C(c1ccc(-c2ccc3c(cnn3C)c2)cc1F)N(C(=O)[C@@H]1C[C@@H]2CC[C@H]1C2)c1cccc(/C=C/C(=O)OC)c1` (some centres unmarked) [NSSK00070], the concentration giving a half-maximal response (EC50) under setting [1] stood at 1700 nM and the EC50 under setting [2] amounted to 1700 nM.
Regarding `[2H]C(c1ccc(-c2ccc(N(C)C)cc2)cc1Cl)N(C(=O)C1CCCCC1)c1cc(F)cc(/C=C/C(=O)OC)c1` (centres unmarked) [NSSK00072], the concentration giving a half-maximal response (EC50) by setting is: under setting [1], 1100 nM; under setting [2], 2200 nM.
In the same order, the values of `[2H]C(c1ccc(-c2ccc3c(cnn3C)c2)cc1Cl)N(C(=O)[C@@H]1C[C@@H]2CC[C@H]1C2)c1cncc(/C=C/C(=O)OC)c1` (some centres unmarked) [NSSK00073] are 119 nM and 146 nM.
On the same counts, the results for `COC(=O)/C=C/c1cccc(N(Cc2ccc(-c3ccc4c(cnn4C)c3)cc2Cl)C(=O)C2CCN(C)CC2)c1` [NSSK00075] are 155000 nM and 653000 nM.
On the same counts, the results for `COC(=O)/C=C/c1cncc(N(Cc2ccc(-c3ccc(N(C)C)cc3)cc2F)C(=O)C2CCCCC2)c1` [NSSK00078] are 698 nM and 673 nM.
As for `[2H]C(c1ccc(-c2ccc(N(C)C)cc2)cc1F)N(C(=O)c1ccccc1)c1cccc(/C=C/C(=O)OC)c1` (centres unmarked) [NSSK00079], the concentration for a half-maximal effect (EC50) was found to be 513 nM under setting [1] and 605 nM under setting [2].
On the same counts, the results for `COC(=O)/C=C/c1cccc(N(Cc2ccc(-c3ccc(N(C)C)cc3)cc2Cl)C(=O)C2CCCCC2)c1` [NSSK00080] are 623 nM and 610 nM.
On the same counts, the results for `COC(=O)/C=C/c1cncc(N(Cc2ccc(-c3ccc(N(C)C)cc3)cc2Cl)C(=O)c2ccccc2)c1` [NSSK00081] are 22800 nM and 71000 nM.
